Measured values: the supplement of paper PMC10307832

Columns and labels:
Experiment in all cases: relative viability (nuclei count vs DMSO), 5 days (fraction); higher = more cells survive
A549 = system: A549
Outline: (§1)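 Values are medians from duplicate plates. Each reflects relative viability, defined as the nuclei count of treated wells over that of vehicle wells. Lung cancer cell lines in 1536-well plates were pin-tool dosed one day after seeding with one drug alone or with a fixed anchor-drug dose plus five library-drug doses (not always all listed) in √10 steps, then fixed, stained and imaged at 4× after 5 days.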

NCI-H1299 = system: NCI-H1299
Outline: as §1

NCI-H520 = system: NCI-H520
Outline: as §1

NCI-H1623 = system: NCI-H1623
Outline: as §1

Calu-6 = system: Calu-6
Outline: as §1

IA-LM = system: IA-LM
Outline: as §1

EBC-1 = system: EBC-1
Outline: as §1

NCI-H1703 = system: NCI-H1703
Outline: as §1

## C[C@@H]1CN(CC(=O)Nc2ccc3c(c2)Cc2cccc(-c4cc(=O)cc(N5CCOCC5)o4)c2S3)C[C@H](C)O1 + COc1cc2c(Oc3ccc(NC(=O)C4(C(=O)Nc5ccc(F)cc5)CC4)cc3F)ccnc2cc1OCCCN1CCOCC1 [Foretinib] (partner 0.25 µM)
A549; first compound 0.04 µM
  relative viability: 0.818
A549; first compound 0.1265 µM
  relative viability: 1.01
A549; first compound 0.4 µM
  relative viability: 0.895
A549; first compound 4 µM
  relative viability: 0.823
NCI-H1299; first compound 0.04 µM
  relative viability: 1.11
NCI-H1299; first compound 0.1265 µM
  relative viability: 1.1
NCI-H1299; first compound 0.4 µM
  relative viability: 1.06
NCI-H1299; first compound 4 µM
  relative viability: 0.995
NCI-H520; first compound 0.04 µM
  relative viability: 0.86
NCI-H520; first compound 0.1265 µM
  relative viability: 0.88
NCI-H520; first compound 0.4 µM
  relative viability: 0.527
NCI-H520; first compound 4 µM
  relative viability: 0.613
NCI-H1623; first compound 0.04 µM
  relative viability: 0.771
NCI-H1623; first compound 0.1265 µM
  relative viability: 0.837
NCI-H1623; first compound 0.4 µM
  relative viability: 0.88
NCI-H1623; first compound 4 µM
  relative viability: 0.786
Calu-6; first compound 0.04 µM
  relative viability: 0.859
Calu-6; first compound 0.1265 µM
  relative viability: 0.841
Calu-6; first compound 0.4 µM
  relative viability: 0.896
Calu-6; first compound 4 µM
  relative viability: 0.639
IA-LM; first compound 0.04 µM
  relative viability: 1.19
IA-LM; first compound 0.1265 µM
  relative viability: 1.37
IA-LM; first compound 0.4 µM
  relative viability: 1.27
IA-LM; first compound 4 µM
  relative viability: 0.56
EBC-1; first compound 0.04 µM
  relative viability: 0.119
EBC-1; first compound 0.1265 µM
  relative viability: 0.113
EBC-1; first compound 0.4 µM
  relative viability: 0.102
EBC-1; first compound 4 µM
  relative viability: 0.129
NCI-H1703; first compound 0.04 µM
  relative viability: 0.367
NCI-H1703; first compound 0.1265 µM
  relative viability: 0.299
NCI-H1703; first compound 0.4 µM
  relative viability: 0.36
NCI-H1703; first compound 4 µM
  relative viability: 0.295

## CC(C)Oc1cc(Nc2nc(N[C@@H](C)c3ccc(F)cn3)ncc2Cl)n[nH]1 [AZ23] + COc1cc2c(Oc3ccc(NC(=O)C4(C(=O)Nc5ccc(F)cc5)CC4)cc3F)ccnc2cc1OCCCN1CCOCC1 [Foretinib] (partner 0.25 µM)
A549; first compound 0.01 µM
  relative viability: 1.01
A549; first compound 0.03162 µM
  relative viability: 1.03
A549; first compound 0.3162 µM
  relative viability: 1.08
NCI-H1299; first compound 0.01 µM
  relative viability: 1.19
NCI-H1299; first compound 0.03162 µM
  relative viability: 1.16
NCI-H1299; first compound 0.3162 µM
  relative viability: 1.18
NCI-H520; first compound 0.01 µM
  relative viability: 0.813
NCI-H520; first compound 0.03162 µM
  relative viability: 0.966
NCI-H520; first compound 0.3162 µM
  relative viability: 0.677
NCI-H1623; first compound 0.01 µM
  relative viability: 0.712
NCI-H1623; first compound 0.03162 µM
  relative viability: 0.924
NCI-H1623; first compound 0.3162 µM
  relative viability: 0.966
Calu-6; first compound 0.03162 µM
  relative viability: 0.923
Calu-6; first compound 0.3162 µM
  relative viability: 0.867
IA-LM; first compound 0.01 µM
  relative viability: 1.35
IA-LM; first compound 0.03162 µM
  relative viability: 1.17
IA-LM; first compound 0.3162 µM
  relative viability: 1.33
EBC-1; first compound 0.01 µM
  relative viability: 0.103
EBC-1; first compound 0.03162 µM
  relative viability: 0.105
EBC-1; first compound 0.3162 µM
  relative viability: 0.0863
NCI-H1703; first compound 0.01 µM
  relative viability: 0.331
NCI-H1703; first compound 0.03162 µM
  relative viability: 0.342
NCI-H1703; first compound 0.3162 µM
  relative viability: 0.314

## COc1cc(N2CCC(C(N)=O)CC2)ccc1Nc1nc(N)c(Cl)c(Nc2ccccc2S(=O)(=O)C(C)C)n1 [HG-5-88-01] + COc1cc2c(Oc3ccc(NC(=O)C4(C(=O)Nc5ccc(F)cc5)CC4)cc3F)ccnc2cc1OCCCN1CCOCC1 [Foretinib] (partner 0.25 µM)
A549; first compound 0.04 µM
  relative viability: 0.984
A549; first compound 0.1265 µM
  relative viability: 0.861
A549; first compound 0.4 µM
  relative viability: 0.993
A549; first compound 1.265 µM
  relative viability: 0.87
A549; first compound 4 µM
  relative viability: 0.228
NCI-H1299; first compound 0.04 µM
  relative viability: 1.05
NCI-H1299; first compound 0.1265 µM
  relative viability: 1.11
NCI-H1299; first compound 0.4 µM
  relative viability: 1.1
NCI-H1299; first compound 1.265 µM
  relative viability: 1.07
NCI-H1299; first compound 4 µM
  relative viability: 1.1
NCI-H520; first compound 0.04 µM
  relative viability: 0.705
NCI-H520; first compound 0.1265 µM
  relative viability: 0.942
NCI-H520; first compound 0.4 µM
  relative viability: 0.629
NCI-H520; first compound 1.265 µM
  relative viability: 0.828
NCI-H520; first compound 4 µM
  relative viability: 0.76
NCI-H1623; first compound 0.04 µM
  relative viability: 0.925
NCI-H1623; first compound 0.1265 µM
  relative viability: 0.906
NCI-H1623; first compound 0.4 µM
  relative viability: 0.845
NCI-H1623; first compound 4 µM
  relative viability: 0.773
Calu-6; first compound 0.04 µM
  relative viability: 0.865
Calu-6; first compound 0.1265 µM
  relative viability: 0.879
Calu-6; first compound 0.4 µM
  relative viability: 0.866
Calu-6; first compound 1.265 µM
  relative viability: 0.793
Calu-6; first compound 4 µM
  relative viability: 0.686
IA-LM; first compound 0.04 µM
  relative viability: 1.28
IA-LM; first compound 0.1265 µM
  relative viability: 1.22
IA-LM; first compound 0.4 µM
  relative viability: 1.05
IA-LM; first compound 1.265 µM
  relative viability: 0.885
IA-LM; first compound 4 µM
  relative viability: 1.18
EBC-1; first compound 0.04 µM
  relative viability: 0.0975
EBC-1; first compound 0.4 µM
  relative viability: 0.12
EBC-1; first compound 1.265 µM
  relative viability: 0.11
EBC-1; first compound 4 µM
  relative viability: 0.105
NCI-H1703; first compound 0.04 µM
  relative viability: 0.41
NCI-H1703; first compound 0.1265 µM
  relative viability: 0.349
NCI-H1703; first compound 1.265 µM
  relative viability: 0.275
NCI-H1703; first compound 4 µM
  relative viability: 0.331

## Clc1ccc(Nc2nnc(Cc3ccncc3)c3ccccc23)cc1 [Vatalanib] + COc1cc2c(Oc3ccc(NC(=O)C4(C(=O)Nc5ccc(F)cc5)CC4)cc3F)ccnc2cc1OCCCN1CCOCC1 [Foretinib] (partner 0.25 µM)
A549; first compound 0.04 µM
  relative viability: 1.06
A549; first compound 0.1265 µM
  relative viability: 0.909
A549; first compound 0.4 µM
  relative viability: 1.01
A549; first compound 1.265 µM
  relative viability: 0.881
A549; first compound 4 µM
  relative viability: 0.948
NCI-H1299; first compound 0.04 µM
  relative viability: 1.1
NCI-H1299; first compound 0.1265 µM
  relative viability: 1.07
NCI-H1299; first compound 0.4 µM
  relative viability: 1.15
NCI-H1299; first compound 1.265 µM
  relative viability: 1.11
NCI-H1299; first compound 4 µM
  relative viability: 1.11
NCI-H520; first compound 0.04 µM
  relative viability: 0.875
NCI-H520; first compound 0.1265 µM
  relative viability: 0.662
NCI-H520; first compound 0.4 µM
  relative viability: 0.781
NCI-H520; first compound 1.265 µM
  relative viability: 0.842
NCI-H520; first compound 4 µM
  relative viability: 0.697
NCI-H1623; first compound 0.04 µM
  relative viability: 0.816
NCI-H1623; first compound 0.1265 µM
  relative viability: 0.861
NCI-H1623; first compound 0.4 µM
  relative viability: 0.794
NCI-H1623; first compound 1.265 µM
  relative viability: 0.854
NCI-H1623; first compound 4 µM
  relative viability: 0.783
Calu-6; first compound 0.04 µM
  relative viability: 0.967
Calu-6; first compound 0.1265 µM
  relative viability: 0.765
Calu-6; first compound 0.4 µM
  relative viability: 0.926
Calu-6; first compound 1.265 µM
  relative viability: 0.869
Calu-6; first compound 4 µM
  relative viability: 0.813
IA-LM; first compound 0.04 µM
  relative viability: 1.16
IA-LM; first compound 0.1265 µM
  relative viability: 1.16
IA-LM; first compound 0.4 µM
  relative viability: 1.05
IA-LM; first compound 1.265 µM
  relative viability: 0.919
IA-LM; first compound 4 µM
  relative viability: 1.06
EBC-1; first compound 0.04 µM
  relative viability: 0.111
EBC-1; first compound 0.1265 µM
  relative viability: 0.109
EBC-1; first compound 0.4 µM
  relative viability: 0.0892
EBC-1; first compound 1.265 µM
  relative viability: 0.0958
EBC-1; first compound 4 µM
  relative viability: 0.118
NCI-H1703; first compound 0.04 µM
  relative viability: 0.323
NCI-H1703; first compound 0.4 µM
  relative viability: 0.335
NCI-H1703; first compound 1.265 µM
  relative viability: 0.34
NCI-H1703; first compound 4 µM
  relative viability: 0.363
